The subject of test [1] is C57BL/6NTac mice, 9.5 Gy total body irradiation. In words: Total body irradiation survival (hematopoietic syndrome). Format: in vivo, mouse. The method, then:
FIG. 13 is a graph of percent survival versus day, illustrating the in vivo mitigation of total body irradiation by MMS350. MMS350 was dissolved in water at a concentration of 2 mg/ml. C57BL/6NTac mice (n=15/group) were irradiated to 9.5 Gy total body irradiation and injected intraperitoneally with 10 mg/kg of MMS350 at 4 or 24 hours after irradiation. The mice were followed for the development of the hematopoietic syndrome at which time the mice were sacrificed.
Mice were irradiated using JL Shepherd Mark 1 Model 68 irradiator to 9.25 total body irradiation dose or a Varian Linear Accelerator (Varian Medical Systems, Inc, Palo Alto, Calif.) to 20 Gy for pulmonary irradiation according to published methods (2, 10, 13).
Mice were injected intra-peritoneally with MMS350 or JP4-039 (GS-nitroxide) in 50% cremphor/50% ethanol according to published methods. For long-term administration of MMS350, the drug was administered in water bottles with bottles changed every 7 days. The dose of drug per bottle was 100 μM MMS350 starting on day 88. The estimated total amount consumed by each animal daily was 10.9 μg based on a mouse drinking 5 ml of water per day. Chimeric mice irradiated to the thoracic cavity were placed 30 days later on MMS350 in water containing 100 mM MMS350. On day 88 after thoracic irradiation of non-chimeric mice, mice were placed on […] MMS350 in drinking water.

Test [2] relates to fibrotic phase associated RNA (TGF-β, TLR4, TLR7), bromodomain transcripts. Description: RT-PCR of irradiation induced gene transcripts in lung. Format: in vivo, mouse. Conditions: 20 Gy thoracic irradiation, MMS350 in drinking water. The method, then: To isolate different cellular compartments of the lung, mice were sacrificed and the pulmonary cavity was opened, and lungs perfused by injecting 5 ml of phosphate-buffered saline (PBS) into the right ventricle of the heart. To isolate pulmonary endothelial cells, the lungs were filled with 1 ml of dispase (39.65 mg/ml), allowed to collapse, and then expanded with 0.5 ml of a 1% low-melt agarose, which had been stored at 45° C. in a water bath. The lungs were immediately covered with ice and incubated for 2 minutes. […] The cells were analyzed by flow cytometry with PECAM+ endothelial cells and PECAM− and CD45− cells alveolar cells isolated.
RNA was extracted from mouse lung or purified cell populations using the TRIzol reagent (Invitrogen, Carlsbad, Calif.) following the manufacturer's instructions, quantified using a spectrophotometer, and stored at −80° C. […]

Each structure is given as a SMILES string. “Also recorded” adds a separate entry of the source.

For `CC1(C[S+]([O-])CC2(C)COC2)COC1` [Compound 3, 3,3′-Sulfinylbis(methylene)bis(3-methyloxetane)], the survival entry in test [1] (9.5 Gy TBI, 10 mg/kg intraperitoneally 4 hours after irradiation, p=0.0092) is “significantly increased survival”; in test [1] (9.5 Gy TBI, 10 mg/kg intraperitoneally 24 hours after irradiation, p=0.0097), “significantly increased survival”; in test [1] (single dose 24 hours after 9.5 Gy TBI, C57BL/6/HNsd mice), “significant improvement in survival”. In test [1] (intraperitoneal injection before or after 9.5 Gy TBI, C57BL/6 mice, n=15/group), the “protection and mitigation against total body irradiation” value is “both a protector when delivered prior to irradiation and mitigator when delivered after irradiation comparable to JP4-039”. Also, the bromodomain transcripts result in test [2] is “little effect on bromodomain transcripts”. Further, the “expression of fibrosis phase mRNA” value in test [2] is “decreased expression of fibrosis phase mRNA expression; also recorded: downregulation of transcription of mRNA associated with the late pulmonary fibrotic reaction”.

Source of the values: patent publication US10251860B2, “Compounds for bone healing” (University of Pittsburgh—Of the Commonwealth System of …, priority 2015, dated 2019).
